Source: patent US20240140953A1, “INHIBITORS OF MENIN-MLL INTERACTION” (BIOMEA FUSION, INC., priority 2018, published 2024)
Where two headings read alike, the source gives them in different places. Values belong to the compound of their own block, whether it stands above or below them.

Columns and labels:
menin = menin (Homo sapiens (Human), UniProt O00255); assay: Kd (Table 3A); format: binding
KG-1 [1] = assay: Long term proliferation, Cell Titer-Glo (Table 3B), KG-1; format: cell-based; conditions: Homo sapiens, KG-1, Cell Titer-Glo
MOLM-13 = assay: Long term proliferation, Cell Titer-Glo (Table 3B), MOLM-13; format: cell-based; conditions: Homo sapiens, MOLM-13, Cell Titer-Glo
OCI-AML-3 [2] = assay: Long term proliferation, Cell Titer-Glo (Table 3B), OCI-AML-3; format: cell-based; conditions: Homo sapiens, OCI-AML-3, Cell Titer-Glo
MV4-11 = assay: Long term proliferation, Cell Titer-Glo (Table 3B), MV4-11; format: cell-based; conditions: Homo sapiens, MV4-11, Cell Titer-Glo
KG-1 [3] = assay: Long term proliferation, InCell (Table 3C), KG-1; format: cell-based; conditions: Homo sapiens, KG-1, InCell
Experimental: (§1) Compounds of invention are tested in the 5 suspension lines by 14-day long-term proliferation assay.
(§2) The compound is tested in 10-pt dose titration (client will determine the starting concentration and the dilution scheme) and the final DMSO concentration is kept at 0.2%.
(§3) Vehicle and media control are also included. All treatments are done in triplicate.
(§4) • 1) On Day 0, in a flat bottom 96-well plate, add 100 μL of cells per well at the densities optimized. • 2) Prepare compounds in DMSO at 500× final concentration. Dilute the compounds with DMSO at the dilution. • 3) Dilute the compounds in media at 3×final concentration. Add 50 μL of compound or DMSO at 3× final concentration to each well. Final volume in each well is 150 μL, and final concentration of DMSO is 0.2%. Also include 3 untreated control wells, by adding 50 μL of media alone. 4) Incubate plates for 96 hours. • 5) Count the cells using the Acumen, with capabilities for 96-well plates. Pipette cells up and down to mix in each well, and add desired volume of cells to a new flat bottom poly-D-lysine 96-well plate. Add Calcein AM at 1 μM final concentration. Let cells sit at RT for 10 mins followed by a quick spin to get cells settled on the bottom of the wells. Incubate the plate for additional 40 mins in the incubator. Take out the plate and read by Acumen. Calculate the cell numbers taken into account the dilution factors. • 6) Split the master plate. To do this take the total viable cell count calculated using step 5). Take the average of the replicates for each dose in order to be used in splitting the cells. • 7) Use a 96 well V-bottom plate to spin down the cells to remove old media and compound to split the cells. Based on the split ratio place the proper amount of media and cells into the V-bottom plate, and spin the plate at 1100 rpm for 5 minutes. • 8) Following the spin remove the media, careful not to disturb the cellpellet. • 9) Re-suspend pellet in 100 μL fresh media, and add to a new 96-well flat bottom plate. • 10) Add fresh compound, in the same manner as Step 3). • 11) Incubate plates for 72 hours. Repeat steps 5)-10) on Day 7. • 12) Incubate plates for 96 hours. Repeat Step 5)-10) on Day 11. • 13) Incubate 72 hours and repeat step 5) to take a final count. • 14) Data Analysis
(§5) To calculate growth for days 4, 7, 11, and 14: • Calculate the split factor for day 4 to 7, day 7 to 11, and day 11-14.

OCI-AML-3 [4] = assay: Long term proliferation, InCell (Table 3C), OCI-AML-3; format: cell-based; conditions: Homo sapiens, OCI-AML-3, InCell
Experimental: as §1, §2, §3, §4, §5

[5] = 96 h, Day 4, read-out: Day 4 IC50
[6] = 168 h, Day 7, read-out: Day 7 IC50
[7] = 264 h, Day 11, read-out: Day 11 IC50
[8] = 336 h, Day 14, read-out: Day 14 IC50

menin, sequence (O00255 whole entry, species assumed): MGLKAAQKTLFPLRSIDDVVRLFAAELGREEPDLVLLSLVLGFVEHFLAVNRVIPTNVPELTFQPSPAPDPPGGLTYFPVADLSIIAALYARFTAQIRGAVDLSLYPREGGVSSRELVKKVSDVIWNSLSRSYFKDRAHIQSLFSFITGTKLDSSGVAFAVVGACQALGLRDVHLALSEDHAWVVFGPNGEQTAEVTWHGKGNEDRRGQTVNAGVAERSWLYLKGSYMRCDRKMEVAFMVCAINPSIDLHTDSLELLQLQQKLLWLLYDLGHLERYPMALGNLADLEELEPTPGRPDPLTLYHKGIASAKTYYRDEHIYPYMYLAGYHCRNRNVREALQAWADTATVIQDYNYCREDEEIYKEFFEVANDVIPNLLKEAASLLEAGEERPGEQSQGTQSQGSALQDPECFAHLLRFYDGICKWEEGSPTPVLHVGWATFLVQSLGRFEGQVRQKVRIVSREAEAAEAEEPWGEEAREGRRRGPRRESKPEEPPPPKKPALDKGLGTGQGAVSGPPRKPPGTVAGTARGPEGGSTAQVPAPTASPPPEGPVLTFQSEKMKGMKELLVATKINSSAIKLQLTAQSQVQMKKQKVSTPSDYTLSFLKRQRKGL

- Kd (menin): 0.5 ± 0.2 µM
Structure (SMILES): O=C(Cc1cc(-c2cccnc2)n[nH]1)Nc1ccc(-c2nc3c(N4CCOCC4)ncnc3[nH]2)cc1 [Compound 12, N-{4-[6-(morpholin-4-yl)-9H-purin-8-yl]phenyl}-2-[3-(pyridin-3-yl)-1H-pyrazol-5-yl]acetamide]

- IC50 (MOLM-13; [5]): 0.41 µM
- IC50 (MOLM-13; [6]): 0.24 µM
- IC50 (MOLM-13; [7]): 0.24 µM
- IC50 (MOLM-13; [8]): 0.48 µM
- IC50 (OCI-AML-3 [2]; [5]): 0.87 µM
- IC50 (OCI-AML-3 [2]; [6]): 0.71 µM
- IC50 (OCI-AML-3 [2]; [7]): 0.65 µM
- IC50 (OCI-AML-3 [2]; [8]): 0.72 µM
- IC50 (MV4-11; [5]): 0.74 µM
- IC50 (MV4-11; [6]): 0.38 µM
- IC50 (MV4-11; [7]): 0.32 µM
- IC50 (MV4-11; [8]): 0.21 µM
- IC50 (OCI-AML-3 [4]; [5]): 0.37 µM
- IC50 (OCI-AML-3 [4]; [7]): 0.72 µM
Structure (SMILES): O=C(Nc1ccc(-c2cc3c(N4CCOCC4)ncnc3[nH]2)cc1)Nc1cc(-c2cccnc2)n[nH]1 [Compound 9, 1-{4-[4-(morpholin-4-yl)-7H-pyrrolo[2,3-d]pyrimidin-6-yl]phenyl}-3-[3-(pyridin-3-yl)-1H-pyrazol-5-yl]urea]
- IC50 (KG-1 [1]; [5]): > 5 µM
- IC50 (KG-1 [1]; [6]): 4.79 µM
- IC50 (KG-1 [1]; [7]): 1.7 µM
- IC50 (KG-1 [1]; [8]): 1.23 µM
- IC50 (KG-1 [3]; [5]): 3.31 µM
- IC50 (KG-1 [3]; [7]): 2.29 µM
